Experimental findings from patent US8367659B2, “Oxazinyl isoflavonoid compounds, medicaments and use” (Marshall Edwards, Inc., priority 2007, dated 2013) are described below.

The test system of experiment [1] is caspase-3/7 activity in A7r5 rat aortic smooth muscle cells. Nature of the experiment: Caspase-3/7 activity (apoptosis) in A7r5 rat aortic smooth muscle cells. It is filed as cell-based. The settings on record: 10, 50 and 100 μM; FIG. 14. An excerpt:
Activation of the caspase cascade is an integral event in the apoptotic pathway. Caspase-3 is one of the important “executioner” caspase enzymes, triggering the cleavage of numerous proteins that lead to the ordered breakdown of cells. The detection of caspase-3 activation is frequently used as a positive marker for apoptosis. A homogeneous luminescent caspase-3/7 assay, the Caspase-Glo™ 3/7 Assay (Promega Corp.) was used to provide an extremely sensitive measure of caspase activation. VSMC were incubated with different concentrations (0 [vehicle alone], 10, 50 and 100 μM) of test compounds. The assay used a proluminescent substrate containing the DEVD sequence recognized by caspase-3 and -7. The caspase-Glo™ 3/7 Reagent produced luminescence that is directly proportional to the amount of caspase-3/7 activity. The luminescence is linear over four orders of magnitude of caspase concentration and over a broad range of cell densities.

The subject of experiment [2] is TNFα synthesis in human peripheral blood monocytes. Nature of the experiment: Synthesis of TNFα by human monocytes stimulated with LPS. The experiment is classed as cell-based. The settings on record: FIGS. 1a, 1b. The procedure: Human peripheral blood monocytes were isolated from buffy coats by lyrnpboprep gradient separation of mononuclear cells followed by counter-current centrifugal elutriation (Demasi et al. 2000). Test compounds were dissolved in DMSO and added to fresh monocytes to achieve concentrations of 0, 10 and 100 μM. After 30 min, LPS was added to achieve a final concentration of 200 ng/mL. After 1 h, supernatants were removed and TNFα measured by ELISA previously described (Demasi et al. 2003). ANOVA followed by Newman-Keuls multiple comparisons test was used to examine differences between doses and the control values.

The next experiment relates to IL-6. Nature of the experiment: IL-6 synthesis by mouse splenocytes (ELISA). It is filed as cell-based, Skh-1:HR 1 (hairless) mice. The settings on record: 10 μM; 3 days. The protocol:
(§1) Male Skh-1:HR 1 (hairless) mice, approximately six weeks old were killed by cervical dislocation. Single cell suspensions were made from the spleen and erythrocytes were lysed in buffer (0.14 M NH4Cl, 17 mM Tris, pH 7.2). The remaining splenocytes were cultured in RPMI-1640 (Gibco) supplemented with 10% (v:v) FBS, 200 mM L-glutamine, penicillin/streptomycin and […] 2-mercaptoethanol. Splenocytes were added to quadruplicate wells containing either concanavalin A (ConA, Sigma-Aldrich—0.4 μg/well), LPS (Sigma-Aldrich—1 μg/well) or no mitogen, as well 10 μM of test compound in DMSO. Samples were analysed after 3 days incubation at 37° C. in 5% CO2 in air. Methylthiazoletetrazolium (MTT) is bioreduced by viable cells into a coloured formazan product that is soluble in DMSO. Thus the quantity of formazan product is directly proportional to the number of living cells in culture, and can be measured using a spectrophotometer at 570 nm. MTT was added to each well, incubated for a further 4 hrs and then colour developed with 0.04 N HCl in isopropanol. Culture supernatants were stored after collection at −80° C. and analysed by ELISA (BD Biosciences) for IFN-γ (a Th-1 cytokine) and for T cells alone, IL-6 (a Th-2 cytokine).

In the next experiment the test system is T cells. Nature of the experiment: T cell proliferation (ConA-stimulated mouse splenocytes, MTT). The experiment is classed as cell-based, Skh-1:HR 1 (hairless) mice. As to conditions: 10 μM, 3 days. The protocol:
as §1

The test system of the next experiment is B cells. Nature of the experiment: B cell proliferation (LPS-stimulated mouse splenocytes, MTT). As to conditions: 10 μM, 3 days. It is filed as cell-based, Skh-1:HR 1 (hairless) mice. The procedure: as §1
For experiment [3], the system named is PGE2 synthesis in RAW 264.7 murine macrophages. Nature of the experiment: LPS-induced PGE2 synthesis in RAW 264.7 murine macrophages. The settings on record: 10 μM; relative to vehicle alone; FIG. 3. It is filed as cell-based, mouse. The protocol: (§2) The mouse macrophage cell line RAW 264.7 was cultured in DMEM supplemented with foetal calf serum (FCS), […] glutamine and 50 U/ml penicillin/streptomycin. Cells were treated with either test compound (in 0.025% DMSO) or vehicle alone, and added one hour before 50 ng/ml LPS. After incubation for 24 h, culture media was collected for PGE2 or TXB2 measurement by ELISA (Cayman Chemical), and TNFα measurement using an ELISA (Becton Dickinson). Test compounds were examined a concentration of 10 μM. […] Consequently, to assess the effect of test compounds on various analytes, cell viability was taken into consideration with the use of the formula: Actual effect of test compound=measured effect−(effect on cell viability×measured effect)

Another experiment relates to IFN-γ. Nature of the experiment: IFN-γ synthesis by mouse splenocytes (ELISA). The experiment is classed as cell-based, Skh-1:HR 1 (hairless) mice. The settings on record: 10 μM; 3 days. The protocol:
as §1
A general note: ELISA stands for enzyme-linked immunosorbent assay.

The subject of experiment [4] is TXB2 synthesis in RAW 264.7 murine macrophages. Nature of the experiment: LPS-induced TXB2 synthesis in RAW 264.7 murine macrophages. The experiment is classed as cell-based, mouse. The settings on record: 10 μM; relative to vehicle alone; FIG. 4. The protocol: as §2

Turning to `Oc1cccc(C2=Cc3ccc(O)cc3OC2)c1` [Compound 37-DHE, 3′,7-dihydroxy-isoflav-3-ene, reference compound], the “induction of caspase-3/7 activity, apoptosis” value in experiment [1] is “no activity”.
Turning to `CC(c1ccccc1)N1COc2cc3c(cc2C1)C=C(c1ccc(O)cc1)CO3` (centres unmarked) [Compound 2, 4-(3-(1-Phenylethyl)-2,3,4,8-tetrahydrochromeno[6,7-e][1,3]oxazin-7-yl)phenol], the “effect on synthesis of TNFα” value in experiment [2] is recorded as “reduce the synthesis of TNFα”. The “synthesis of IL-6 into the supernatant” value with IL-6 was “concomitant reduction”. The “effect on T cells” value with T cells was “markedly and significantly immunosuppressive”. For the same compound, the “effect on B cells” value in the experiment on B cells is “markedly and significantly immunosuppressive”. Moreover, in experiment [3], the “mean change of LPS-induced PGE2 synthesis” value was “greatest inhibition”. In addition, in the experiment on IFN-γ, the “synthesis of INF-γ into the supernatant” value is reported as “concomitant reduction”. Moreover, the “mean change of LPS-induced TXB2 synthesis” value in experiment [4] is “greatest inhibition”.
